Measurements published in patent US9969687B2, “Compounds useful as CCR9 modulators” (Norgine B.V., priority 2013, dated 2018).
pKi: −log10 of the molar value.

Assays:
CCR9 [1] = biological target: T1, CCR9 (Homo sapiens (Human), UniProt P51686); experiment: FLIPR calcium flux assay using MOLT4 cells, TECK stimulation; assay type: cell-based; conditions: MOLT4 cells (human T-cell line)
Protocol: Biological Activity: FLIPR Assay Using MOLT4 Cells
A calcium flux assay was used to determine the ability of the compounds to interfere with the binding between CCR9 and its chemokine ligand (TECK) in MOLT4 cells (a human T-cell line). MOLT4 cells were seeded (100,000 cells/well) in corning cell culture plates (Cat #3603) in assay buffer (1×HBSS, 20 mM HEPES) containing 2.5 mM Probenecid. The plate was centrifuged at 1200 rpm for 3 minutes and incubated at 37° C./5% CO2 for 2 hours. A 0.3× Fluo-4 NW calcium dye was prepared in assay buffer containing 5 mM Probenecid and stored in the dark. Each well was loaded with 25 μl of 0.3× Fluo-4 NW calcium dye and incubated at 37° C./5% CO2 for 60 minutes and then at room temperature for 30 minutes. A half-log serially diluted concentration response curve was prepared at a 4× concentration for each (10 μM-0.1 nM final assay concentration) and 25 μL of the compound then transferred to the cells (100 μL final volume) for 60 minutes prior to stimulation (30 minutes at 37° C./5% CO2 and 30 minutes at room temperature). […] The increased in intracellular calcium levels was measured with the FLIPR instrument. The potency of the compound as CCR9 antagonist was calculated as an IC50 using GraphPad Prism software (variable slope four parameter). The Ki of the compound was determined from the IC50 values using the following equation. IC50/1+(Agonist (TECK) conc. used in assay/EC50 of agonist (TECK) generated on day of experiment) Ki calculation: […]

CCR9 [2] = biological target: T1, CCR9; experiment: FLIPR calcium flux assay using hCCR9 over expressed cells (Chem1-hCCR9), TECK stimulation; assay type: cell-based; conditions: Chem1-hCCR9 overexpressing cells
Protocol: Biological Activity: FLIPR Assay Using hCCR9 Over Expressed Cells
A calcium flux assay was used to determine the ability of the compounds to interfere with the binding between CCR9 and its chemokine ligand (TECK) in Chem1-hCCR9 overexpressing cells. hCCR9 overexpressing cells were seeded (25,000 cells/well) into black Poly-D-Lysine coated clear bottom 96-well plates (BD Biosciences, Cat #356640) and incubated overnight at 37° C./5% CO2 in a humidified incubator. Media was aspirated and cells washed twice with 100 μL assay buffer (1×HBSS, 20 mM HEPES) containing 2.5 mM Probenecid. A 0.3× Fluo-4 NW calcium dye was prepared in assay buffer containing 5 mM Probenecid and stored in the dark. Each well was loaded with 100 μL of 0.3× Fluo-4 NW calcium dye and incubated at 37° C./5% CO2 for 60 minutes and then at room temperature for 30 minutes. A half-log serially diluted concentration response curve was prepared at a 3× final assay concentration for each compound (10 μM-0.1 nM final assay concentration) and 50 μL of the compound then transferred to the cells (150 μL final volume) for 60 minutes prior to stimulation (30 minutes at 37° C./5% CO2 and 30 minutes at room temperature). TECK was diluted to 4× its EC80 in assay buffer (containing 0.1% [w/v] bovine serum albumin [BSA]) and 50 μL dispensed through the fluorometric imaging plate reader (FLIPR) instrument to stimulate the cells (200 μL final volume). The increase in intracellular calcium levels was measured with the FLIPR instrument. The potency of the compound as a CCR9 antagonist was calculated as an IC50 using GraphPad Prism software (variable slope four parameter). The Ki of the compound was determined from the IC50 values using the following equation. IC50/1+(Agonist (TECK) conc. used in assay/EC50 of agonist (TECK) generated on day of experiment) Ki calculation: […]

T1 sequence (P51686 whole entry): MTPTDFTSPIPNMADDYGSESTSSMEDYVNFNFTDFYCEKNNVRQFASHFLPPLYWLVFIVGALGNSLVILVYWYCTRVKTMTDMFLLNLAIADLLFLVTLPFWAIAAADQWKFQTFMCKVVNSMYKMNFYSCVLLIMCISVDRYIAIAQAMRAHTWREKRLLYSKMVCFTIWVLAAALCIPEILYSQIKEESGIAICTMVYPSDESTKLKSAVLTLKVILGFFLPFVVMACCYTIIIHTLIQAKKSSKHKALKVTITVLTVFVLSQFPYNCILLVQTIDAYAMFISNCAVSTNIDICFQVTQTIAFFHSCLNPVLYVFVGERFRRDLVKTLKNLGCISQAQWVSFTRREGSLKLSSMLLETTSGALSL

SMILES | pKi (CCR9 [1]) | pKi (CCR9 [2])
O=C1c2c(Cl)ccc(NS(=O)(=O)c3ccc(OC(F)(F)F)cc3)c2C(=O)N1c1cccnc1 [Compound 45] | 7.28 | 6.50
COC(=O)c1cc(N2C(=O)c3c(Cl)ccc(NS(=O)(=O)c4ccc(C(C)(C)C)cc4)c3C2=O)n(C)n1 [Compound 291] | 8.30 | 7.82
Cc1cc(N2C(=O)c3c(Cl)ccc(NS(=O)(=O)c4ccc(C(C)(C)C)cc4)c3C2=O)c[n+]([O-])c1 [Compound 214] | 7.70 | 7.28
Cc1ccc(N2C(=O)c3c(Cl)ccc(NS(=O)(=O)c4ccc(C(C)(C)C)cc4)c3C2=O)c(C)[n+]1[O-] [Compound 227] | 7.85 | 7.49
CC(C)(C)c1ccc(S(=O)(=O)Nc2ccc(C#N)c3c2C(=O)N(Cc2cccnc2)C3=O)cc1 [Compound 82, 4-(tert-butyl)-N-(7-cyano-1,3-dioxo-2-(pyridin-3-ylmethyl)isoindolin-4-yl)benzenesulfonamide] | 7.72 | 7.01
Cc1ccc(N2C(=O)c3c(Cl)ccc(NS(=O)(=O)c4ccc(C(C)(C)C)cc4)c3C2=O)nc1 [Compound 226] | 7.68 | 7.64
CC(C)(C)c1ccc(S(=O)(=O)Nc2ccc(Cl)c3c2C(=O)N(Cc2ncccc2F)C3=O)cc1 [Compound 239] | 7.89 | 7.64
Cc1ccc(N2C(=O)c3c(Cl)ccc(NS(=O)(=O)c4ccc(C(C)(C)C)cc4)c3C2=O)c(C)n1 [Compound 224] | 8.30 | 8.22
N#Cc1cccc(CN2C(=O)c3c(Cl)ccc(NS(=O)(=O)c4ccc(C(F)(F)F)cc4)c3C2=O)c1 [Compound 128] | 6.61 | 6.35
Cn1nccc1N1C(=O)c2c(Cl)ccc(NS(=O)(=O)c3ccc(C(C)(C)C)cc3)c2C1=O [Compound 144] | 8.52 | 7.64
Cc1cccc(N2C(=O)c3c(Cl)ccc(NS(=O)(=O)c4ccc(C(C)(C)C)cc4)c3C2=O)n1 [Compound 228] | 8.30 | 8.22
Cc1cccc(CN2C(=O)c3c(Cl)ccc(NS(=O)(=O)c4ccc(C(C)(C)C)cc4)c3C2=O)n1 [Compound 254] | 7.24 | 7.17
CC(C)(C)c1ccc(S(=O)(=O)Nc2ccc(Cl)c3c2C(=O)N(c2ccc[nH]c2=O)C3=O)cc1 [Compound 281, 4-(tert-butyl)-N-(7-chloro-1,3-dioxo-2-(2-oxo-1,2-dihydropyridin-3-yl)isoindolin-4-yl)benzenesulfonamide] | 8.30 | 8.40
COc1ncccc1N1C(=O)c2c(Cl)ccc(NS(=O)(=O)c3ccc(C(C)(C)C)cc3)c2C1=O [Compound 183] | 8.52 | 8.52
CC(C)(C)c1ccc(S(=O)(=O)Nc2ccc(Cl)c3c2C(=O)N(Cc2ccccn2)C3=O)cc1 [Compound 191] | 7.70 | 7.48
CC(C)(C)c1ccc(S(=O)(=O)Nc2ccc(Cl)c3c2C(=O)N(c2cccnc2F)C3=O)cc1 [Compound 218] | 8.15 | 7.59
Cc1cc(CN2C(=O)c3c(Cl)ccc(NS(=O)(=O)c4ccc(C(C)(C)C)cc4)c3C2=O)c[n+]([O-])c1 [Compound 262] | 7.34 | 6.92
CC(C)(C)c1ccc(S(=O)(=O)Nc2ccc(Cl)c3c2C(=O)N(c2ccncn2)C3=O)cc1 [Compound 249] | 7.48 | 7.22
CCOc1ccncc1N1C(=O)c2c(Cl)ccc(NS(=O)(=O)c3ccc(C(C)(C)C)cc3)c2C1=O [Compound 271] | 8.05 | 7.46
Cc1nccnc1N1C(=O)c2c(Cl)ccc(NS(=O)(=O)c3ccc(C(C)(C)C)cc3)c2C1=O [Compound 270] | 7.64 | 7.21

SMILES | pKi (CCR9 [1]) | pKi (CCR9 [2])
Cc1cc[n+]([O-])cc1N1C(=O)c2c(Cl)ccc(NS(=O)(=O)c3ccc(C(C)(C)C)cc3)c2C1=O [Compound 188] | 7.82 | 7.05
Cc1c[n+]([O-])ccc1N1C(=O)c2c(Cl)ccc(NS(=O)(=O)c3ccc(C(C)(C)C)cc3)c2C1=O [Compound 272] | 8.05 | 7.54
CC(C)(C)c1ccc(S(=O)(=O)Nc2ccc(Cl)c3c2C(=O)N(c2cccnc2C(=O)O)C3=O)cc1 [Compound 287, 3-(4-((4-(tert-butyl)phenyl)sulfonamido)-7-chloro-1,3-dioxoisoindolin-2-yl)picolinic acid] | 7.66 | 8.00
CC(C)(C)c1ccc(S(=O)(=O)Nc2ccc(Cl)c3c2C(=O)N(c2cn[nH]c2)C3=O)cc1 [Compound 148, 4-(tert-butyl)-N-(7-chloro-1,3-dioxo-2-(1H-pyrazol-4-yl)isoindolin-4-yl)benzenesulfonamide] | 7.44 | 7.03
CC(C)(C)c1ccc(S(=O)(=O)Nc2ccc(Cl)c3c2C(=O)N(Cc2ncccn2)C3=O)cc1 [Compound 204] | 8.15 | 7.52
CC(C)(C)c1ccc(S(=O)(=O)Nc2ccc(Cl)c3c2C(=O)N(Cc2cncc(C#N)c2)C3=O)cc1 [Compound 195] | 7.51 | 7.38
Cc1cncc(N2C(=O)c3c(Cl)ccc(NS(=O)(=O)c4ccc(C(C)(C)C)cc4)c3C2=O)c1 [Compound 104, 4-(tert-butyl)-N-(7-chloro-2-(5-methylpyridin-3-yl)-1,3-dioxoisoindolin-4-yl)benzenesulfonamide] | 7.52 | 6.62
Cn1ccc(N2C(=O)c3c(Cl)ccc(NS(=O)(=O)c4ccc(C(C)(C)C)cc4)c3C2=O)n1 [Compound 145] | 6.89 | 7.14
CC(C)(C)c1ccc(S(=O)(=O)Nc2ccc(Cl)c3c2C(=O)N(c2ccncc2)C3=O)cc1 [Compound 264] | 7.96 | 7.74
Cc1cncc(CN2C(=O)c3c(Cl)ccc(NS(=O)(=O)c4ccc(C(C)(C)C)cc4)c3C2=O)c1 [Compound 258] | 7.64 | 7.17
Cc1ccc(CN2C(=O)c3c(Cl)ccc(NS(=O)(=O)c4ccc(C(C)(C)C)cc4)c3C2=O)nc1 [Compound 251] | 7.29 | 6.83
CC(C)(C)c1ccc(S(=O)(=O)Nc2ccc(Cl)c3c2C(=O)N(c2sccc2C#N)C3=O)cc1 [Compound 179] | 7.80 | 7.24
CC(C)(C)c1ccc(S(=O)(=O)Nc2ccc(Cl)c3c2C(=O)N(c2cccnc2)C3=O)cc1 [Compound 43, 4-(tert-butyl)-N-(7-chloro-1,3-dioxo-2-(pyridin-3-yl)isoindolin-4-yl)benzenesulfonamide] | 7.60 | 7.38
Cc1cc(N2C(=O)c3c(Cl)ccc(NS(=O)(=O)c4ccc(C(C)(C)C)cc4)c3C2=O)c(C)[n+]([O-])c1 [Compound 267] | 7.57 | 7.23
Cn1cnc(N2C(=O)c3c(Cl)ccc(NS(=O)(=O)c4ccc(C(C)(C)C)cc4)c3C2=O)n1 [Compound 255] | 7.77 | 7.14
CC(C)(C)c1ccc(S(=O)(=O)Nc2ccc(Cl)c3c2C(=O)N(c2ccsc2C#N)C3=O)cc1 [Compound 232] | 8.15 | 8.52
Cc1ccnc(N2C(=O)c3c(Cl)ccc(NS(=O)(=O)c4ccc(C(C)(C)C)cc4)c3C2=O)n1 [Compound 216] | 7.64 | 7.31
O=C1c2cccc(NS(=O)(=O)c3ccc(C(F)(F)F)cc3)c2C(=O)N1c1cccnc1 [Compound 6] | – | 5.25
Cc1ccc(CN2C(=O)c3c(Cl)ccc(NS(=O)(=O)c4ccc(C(C)(C)C)cc4)c3C2=O)c(C)[n+]1[O-] [Compound 252] | 7.48 | –
